Experimental data taken from patent US10870638B2, “Pyridazinone compound or its salt, and herbicide containing it” (ISHIHARA SANGYO KAISHA, LTD., priority 2016, dated 2020).

How the values were obtained:
Format in all cases: in vivo
Conditions in all cases: 14th day after application
[1] = tested on: wheat (Triticum aestivum L.); assay: Test Example 2: soil application on the day after sowing, growth inhibition rate on 14th day
How it was run: (§1)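 Growth inhibition (%) judged by eye at day 14, scale 0 = as untreated to 100 = complete kill. Compounds formulated as wettable powders or emulsifiable concentrates, diluted in 1,000 L water per ha and sprayed onto pot soil one day post-sowing at set active-ingredient rates.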

[2] = tested on: corn (Zea mays L.); assay: as above
How it was run: as §1

[3] = tested on: redroot pigweed (Amaranthus retroflexus L.); assay: as above
How it was run: as §1

[4] = tested on: barnyardgrass (Echinochloa crus-qalli L.); assay: as above
How it was run: as §1

[5] = tested on: velvetleaf (Abutilon theophrasti MEDIC.); assay: as above
How it was run: as §1

[6] = tested on: prickly sida (Sida spinosa L.); assay: as above
How it was run: as §1

[7] = tested on: green foxtail (Setaria viridis L.); assay: as above
How it was run: as §1

[8] = tested on: rice (Oryza sativa L.); assay: as above
How it was run: as §1

[9] = tested on: soybean (Glycine max Merr.); assay: as above
How it was run: as §1

[10] = tested on: crabgrass (Digitaris sanquinalis L.); assay: as above
How it was run: as §1

[11] = tested on: wheat (Triticum aestivum L.); assay: Test Example 1: foliar treatment, growth inhibition rate on 14th day
How it was run: (§2)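 Visual 0–100% inhibition scoring (100 = complete kill) at 14 days after foliar treatment of soil-grown seedlings at species-specific leaf stages, with the compound sprayed as a wettable powder or emulsifiable concentrate dilution.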

[12] = tested on: crabgrass (Digitaria sanquinalis L.); assay: as above
How it was run: as §2

[13] = tested on: corn (Zea mays L.); assay: as above
How it was run: as §2

[14] = tested on: redroot pigweed (Amaranthus retroflexus L.); assay: as above
How it was run: as §2

[15] = tested on: barnyardgrass (Echinochloa crus-qalli L.); assay: as above
How it was run: as §2

[16] = tested on: wild oat (Avena fatua L.); assay: as above
How it was run: (§3)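 Inhibition was rated visually 14 days after treatment on a 0–100% scale, where 100 is complete kill. Compounds, formulated as wettable powders or emulsifiable concentrates at set active-ingredient amounts, were diluted to 1,000 L/ha with 0.1 vol% spreader. The dilutions were sprayed post-emergence onto soybean (primary leaf), rice (0.2–2.7 leaf), wild oat (0.4–1.2) and green foxtail (0.5–3.2).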

[17] = tested on: green foxtail (Setaria viridis L.); assay: as above
How it was run: as §3

[18] = tested on: italian ryegrass (Lolium multiflorum Lam.); assay: as above
How it was run: as §2

[19] = tested on: rice (Oryza sativa L.); assay: as above
How it was run: as §3

[20] = tested on: soybean (Glycine max Merr.); assay: as above
How it was run: as §3

[21] = active ingredient amount 31 g/ha
[22] = active ingredient amount 500 g/ha

Compound | Growth inhibition rate (%) Wheat [1, 21] [%] | Growth inhibition rate (%) Corn [2, 21] [%] | Growth inhibition rate (%) Redroot pigweed [3, 21] [%] | Growth inhibition rate (%) Barnyardgrass [4, 21] [%] | Growth inhibition rate (%) Velvetleaf [5, 21] [%] | Growth inhibition rate (%) Prickly sida [6, 21] [%] | Growth inhibition rate (%) Green foxtail [7, 21] [%] | Growth inhibition rate (%) Rice [8, 21] [%] | Growth inhibition rate (%) Soybean [9, 21] [%] | Growth inhibition rate (%) Crabgrass [10, 21] [%] | Growth inhibition rate (%) Wheat [11, 21] [%] | Growth inhibition rate (%) Crabgrass [12, 21] [%] | Growth inhibition rate (%) Corn [13, 21] [%] | Growth inhibition rate (%) Redroot pigweed [14, 21] [%] | Growth inhibition rate (%) Barnyardgrass [15, 21] [%] | Growth inhibition rate (%) Wild oat [16, 21] [%] | Growth inhibition rate (%) Green foxtail [17, 21] [%] | Growth inhibition rate (%) Italian ryegrass [18, 21] [%] | Growth inhibition rate (%) Rice [19, 21] [%] | Growth inhibition rate (%) Soybean [20, 21] [%] | also measured
Cc1ccc(Oc2cc(C(F)(F)F)c(C(F)(F)F)cn2)cc1-c1c(O)c(C)nn(C)c1=O [Compound 2-93] | 0 | 0 | 0 | 100 | 0 | 0 | 99 | 0 | 0 | 99 | 0 | 99 | 95 | 20 | 100 | 30 | 100 | 88 | 0 | 10 | 
Cc1ccc(Oc2ncc(Br)cc2Cl)cc1-c1c(O)c(C)nn(C)c1=O [Compound 2-101] | 10 | 20 | 0 | 78 | 0 | 0 | 95 | 0 | 0 | 93 | 0 | 85 | 80 | 0 | 75 | 70 | 88 | 50 | 0 | 20 | 
Cc1ccc(Oc2ccc3ccccc3n2)cc1-c1c(O)c(C)nn(C)c1=O [Compound 2-108] |  |  |  |  |  |  |  |  |  |  |  |  |  |  |  |  |  |  |  |  | Growth inhibition rate (%) Wheat [1, 22]: 0%; Growth inhibition rate (%) Corn [2, 22]: 0%; Growth inhibition rate (%) Redroot pigweed [3, 22]: 0%; Growth inhibition rate (%) Barnyardgrass [4, 22]: 100%; Growth inhibition rate (%) Velvetleaf [5, 22]: 0%; Growth inhibition rate (%) Prickly sida [6, 22]: 0%; Growth inhibition rate (%) Green foxtail [7, 22]: 93%; Growth inhibition rate (%) Rice [8, 22]: 93%; Growth inhibition rate (%) Soybean [9, 22]: 0%; Growth inhibition rate (%) Crabgrass [10, 22]: 98%; Growth inhibition rate (%) Wheat [11, 22]: 50%; Growth inhibition rate (%) Crabgrass [12, 22]: 85%; Growth inhibition rate (%) Corn [13, 22]: 10%; Growth inhibition rate (%) Redroot pigweed [14, 22]: 0%; Growth inhibition rate (%) Barnyardgrass [15, 22]: 100%; Growth inhibition rate (%) Wild oat [16, 22]: 50%; Growth inhibition rate (%) Green foxtail [17, 22]: 95%; Growth inhibition rate (%) Italian ryegrass [18, 22]: 10%; Growth inhibition rate (%) Rice [19, 22]: 93%; Growth inhibition rate (%) Soybean [20, 22]: 20%
Cc1ccc(Oc2cnc3ccccc3c2)cc1-c1c(O)c(C)nn(C)c1=O [Compound 2-112] |  |  |  |  |  |  |  |  |  |  |  |  |  |  |  |  |  |  |  |  | Growth inhibition rate (%) Wheat [1, 22]: 20%; Growth inhibition rate (%) Corn [2, 22]: 0%; Growth inhibition rate (%) Redroot pigweed [3, 22]: 0%; Growth inhibition rate (%) Barnyardgrass [4, 22]: 100%; Growth inhibition rate (%) Velvetleaf [5, 22]: 0%; Growth inhibition rate (%) Prickly sida [6, 22]: 0%; Growth inhibition rate (%) Green foxtail [7, 22]: 100%; Growth inhibition rate (%) Rice [8, 22]: 70%; Growth inhibition rate (%) Soybean [9, 22]: 0%; Growth inhibition rate (%) Crabgrass [10, 22]: 100%; Growth inhibition rate (%) Wheat [11, 22]: 80%; Growth inhibition rate (%) Crabgrass [12, 22]: 98%; Growth inhibition rate (%) Corn [13, 22]: 93%; Growth inhibition rate (%) Redroot pigweed [14, 22]: 20%; Growth inhibition rate (%) Barnyardgrass [15, 22]: 99%; Growth inhibition rate (%) Wild oat [16, 22]: 90%; Growth inhibition rate (%) Green foxtail [17, 22]: 100%; Growth inhibition rate (%) Italian ryegrass [18, 22]: 90%; Growth inhibition rate (%) Rice [19, 22]: 93%; Growth inhibition rate (%) Soybean [20, 22]: 0%
CC(=O)Oc1c(C)nn(C)c(=O)c1-c1cc(Oc2ncc(C(F)(F)F)cc2C(F)(F)F)ccc1C [Compound 2-116] | 60 | 85 | 0 | 100 | 0 | 0 | 100 | 0 | 0 | 100 | 99 | 100 | 100 | 0 | 100 | 100 | 100 | 100 | 90 | 10 | 
